Laboratory results: US11957783B2, “Topical immunosensitizers to treat viral and fungal infections” (Squarex, LLC, priority 2018, dated 2024)

Tested on: peripheral blood mononuclear cells (PBMC)
Experiment: Cytokine and immune-function gene expression of PBMC in vitro (qRT-PCR, 41 immune-related genes)
Type: cell-based, human
Settings: for Ratio of absolute IFNG gene expression in group A vs. Groups B + C pooled: group A day 57 after SADBE
Protocol: After a screening visit at which blood was drawn to test for IgG antibody against HSV-1 and subjects were interviewed for inclusion/exclusion criteria, selected subjects returned for blood draws on day 1. After the blood draw on day 1, subjects in group A only were dosed with SADBE. A petrolatum donut was applied with a cotton swab to form about a 1 cm diameter donut on skin on the inner aspect of the upper arm. Then a separate cotton swab was dipped in a 2% SADBE solution (w/v) in DMSO, and the swab was then used to apply about 10-20 mg of solution over about a 1 cm diameter circle within the petrolatum donut. Immediately after application, the application site was covered with TEGADERM. Subjects were advised to remove the TEGADERM and rinse and wipe the spot three hours later. The group A subjects then returned for blood draws on days 15 and 57 and were queried about adverse events on those dates.
PBMC were isolated using SepMate PBMC isolation tubes (Stem Cell Technologies, Vancouver, Canada) and Ficoll-Paque according to the manufacturer's instructions. PBMC were isolated and suspended in negative control medium at 2 million cells/ml. PBMC suspension (100 μL) was added to 100 μL of medium in quadruplicate in 96-well plates. The plates were prepared in advance and stored at −70° C. The wells were in five different conditions in quadruplicate with these final concentrations after addition of the 100 μL of PBMC suspension in negative control medium. • 1. Negative control in medium (RPMI with glutamine and pen/strep, supplemented with 10% human A/B serum). • 2. Medium plus 16 μg/ml protein from heat-inactivated HSV-1-infected Vero cell extracts. • 3. Medium plus heat-inactivated HSV-1 cell-free virus at a final 7.5 million pfu/ml. • 4. Medium plus Candida cell extract. (Greer item number M15A50, 20,000 pnu/ml allergenic extract mixed molds Candida albicans, was diluted 1/50 into medium). • 5. Positive control, medium plus 10 μg/ml concanavalin A.
Two plates were created for each subject at each collection point. One plate was incubated for 2 days at 37° C. in a humidified 5% CO2 atmosphere and then RNA was isolated from the pooled contents of the 4 wells of a given condition for a specific patient, and the RNA was stored at −70° C. and subsequently used for quantitative real time PCR analysis of gene expression of 41 immune-related genes.
As noted above, after 2 days of growth of the PBMC in a 37° C. humidified 5% CO2 incubator in a 96-well plate, four wells of a single condition (negative control, positive control, heat-inactivated HSV-1, HSV-1-infected cell extracts, or Candida extract) with cells from a single subject (200 μL in each well) were pooled, and the RNA was immediately isolated with Trizol reagent and chloroform by Qiagen RNeasy MiniElute clean up kit Qiagen cat #74204, according to manufacturer's instructions into a final volume of 13 μL, and then flash frozen on powdered dry ice, and stored at −70° C. in aliquots of 3 μL for RNA quantification and 10 μL for PCR analysis.
RNA was preamplified with the Qiagen RT2 PreAMP cDNA synthesis kit (Ref. 330451) and custom RT2 PreAmp primer mix (Ref. 330141) starting with about 50 ng RNA according to the procedure of RT preamp cDNA synthesis handbook date March 2011, pages 17-20. The amplification reactions (final 120 μL) were frozen at −70° C. and used for qPCR analysis the next day.
qPCR was done with the Qiagen RT PCR profiler gene analysis kit (catalog number 330451) using RT2 Sybr Green Rox qPCR Mastermix (24) (Part 330523) and Custom RT2 PCR array plates (Ref. 330171). For this 675 μL 2×RT2 SYBR green mastermix, 51 μL pre-AMP synthesis reaction, and 623 μL RNase free water were mixed, and then 25 μL of the mixture was added to 48 wells on the left or right half of the custom PCR plate. The PCR instrument was Applied Biosystems 7900HT fast real time PCR. […]

[1] = PBMC + Candida extract, group A day 57 vs day 1 (pre-dose), one topical 2% SADBE dose

CCCCOc1c(OCCCC)c(=O)c1=O [SADBE, 3,4-Dibutoxy-3-cyclobutene-1,2-dione]
LTA ratio of PBMC absolute gene expression day 57/day 1 (Group A, Neg. control): 0.73 | LYZ ratio of PBMC absolute gene expression day 15/day 1 (Group A, Neg. control): 1.18 | LYZ ratio of PBMC absolute gene expression day 57/day 1 (Group A, Neg. control): 0.55 | MX1 ratio of PBMC absolute gene expression day 15/day 1 (Group A, Neg. control): 0.81 | MX1 ratio of PBMC absolute gene expression day 57/day 1 (Group A, Neg. control): 0.47 | NOD1 ratio of PBMC absolute gene expression day 15/day 1 (Group A, Neg. control): 1.14 | NOD1 ratio of PBMC absolute gene expression day 57/day 1 (Group A, Neg. control): 0.87 | SPP1 ratio of PBMC absolute gene expression day 15/day 1 (Group A, Neg. control): 1.35 | SPP1 ratio of PBMC absolute gene expression day 57/day 1 (Group A, Neg. control): 2.38 | STAT1 ratio of PBMC absolute gene expression day 15/day 1 (Group A, Neg. control): 0.86 | STAT1 ratio of PBMC absolute gene expression day 57/day 1 (Group A, Neg. control): 1.29 | STAT4 ratio of PBMC absolute gene expression day 15/day 1 (Group A, Neg. control): 0.94 | STAT4 ratio of PBMC absolute gene expression day 57/day 1 (Group A, Neg. control): 0.88 | TNF ratio of PBMC absolute gene expression day 15/day 1 (Group A, Neg. control): 0.91 | TNF ratio of PBMC absolute gene expression day 57/day 1 (Group A, Neg. control): 1.15 | TNFSF10 ratio of PBMC absolute gene expression day 15/day 1 (Group A, Neg. control): 0.93 | TNFSF10 ratio of PBMC absolute gene expression day 57/day 1 (Group A, Neg. control): 1 | TNFSF13B ratio of PBMC absolute gene expression day 15/day 1 (Group A, Neg. control): 1.03 | TNFSF13B ratio of PBMC absolute gene expression day 57/day 1 (Group A, Neg. control): 0.67 | CCL2 ratio of PBMC absolute gene expression day 15/day 1 (Group A, Virus): 0.88 | CCL2 ratio of PBMC absolute gene expression day 57/day 1 (Group A, Virus): 1.71 | CCL3 ratio of PBMC absolute gene expression day 15/day 1 (Group A, Virus): 0.84 | CCL3 ratio of PBMC absolute gene expression day 57/day 1 (Group A, Virus): 3.73 | CCL7 ratio of PBMC absolute gene expression day 15/day 1 (Group A, Virus): 0.72 | CCL7 ratio of PBMC absolute gene expression day 57/day 1 (Group A, Virus): 1.81 | CCR5 ratio of PBMC absolute gene expression day 15/day 1 (Group A, Virus): 0.87 | CCR5 ratio of PBMC absolute gene expression day 57/day 1 (Group A, Virus): 1.35 | CD80 ratio of PBMC absolute gene expression day 15/day 1 (Group A, Virus): 0.79 | CD80 ratio of PBMC absolute gene expression day 57/day 1 (Group A, Virus): 1.25 | CXCL2 ratio of PBMC absolute gene expression day 15/day 1 (Group A, Virus): 0.91 | CXCL2 ratio of PBMC absolute gene expression day 57/day 1 (Group A, Virus): 1.58 | CXCL5 ratio of PBMC absolute gene expression day 15/day 1 (Group A, Virus): 0.94 | CXCL5 ratio of PBMC absolute gene expression day 57/day 1 (Group A, Virus): 2.52 | CXCL9 ratio of PBMC absolute gene expression day 15/day 1 (Group A, Virus): 1.42 | CXCL9 ratio of PBMC absolute gene expression day 57/day 1 (Group A, Virus): 2.5 | CXCL10 ratio of PBMC absolute gene expression day 15/day 1 (Group A, Virus): 0.74 | CXCL10 ratio of PBMC absolute gene expression day 57/day 1 (Group A, Virus): 1.00 | CXCL11 ratio of PBMC absolute gene expression day 15/day 1 (Group A, Virus): 0.34 | CXCL11 ratio of PBMC absolute gene expression day 57/day 1 (Group A, Virus): 0.40 | DDX58 ratio of PBMC absolute gene expression day 15/day 1 (Group A, Virus): 0.66 | DDX58 ratio of PBMC absolute gene expression day 57/day 1 (Group A, Virus): 0.95 | FOXP3 ratio of PBMC absolute gene expression day 15/day 1 (Group A, Virus): 1.27 | FOXP3 ratio of PBMC absolute gene expression day 57/day 1 (Group A, Virus): 2.46 | GATA3 ratio of PBMC absolute gene expression day 15/day 1 (Group A, Virus): 0.89 | GATA3 ratio of PBMC absolute gene expression day 57/day 1 (Group A, Virus): 0.32 | ICAM1 ratio of PBMC absolute gene expression day 15/day 1 (Group A, Virus): 1.01 | ICAM1 ratio of PBMC absolute gene expression day 57/day 1 (Group A, Virus): 1.07 | IFNA1 ratio of PBMC absolute gene expression day 15/day 1 (Group A, Virus): 0.58 | IFNA1 ratio of PBMC absolute gene expression day 57/day 1 (Group A, Virus): 1.34 | IFNB1 ratio of PBMC absolute gene expression day 15/day 1 (Group A, Virus): 0.78 | IFNB1 ratio of PBMC absolute gene expression day 57/day 1 (Group A, Virus): 0.87 | IFNG ratio of PBMC absolute gene expression day 15/day 1 (Group A, Virus): 1.91 | IFNG ratio of PBMC absolute gene expression day 57/day 1 (Group A, Virus): 11.01 | IL1B ratio of PBMC absolute gene expression day 15/day 1 (Group A, Virus): 0.77 | IL1B ratio of PBMC absolute gene expression day 57/day 1 (Group A, Virus): 5.09 | IL1R1 ratio of PBMC absolute gene expression day 15/day 1 (Group A, Virus): 0.74 | IL1R1 ratio of PBMC absolute gene expression day 57/day 1 (Group A, Virus): 0.97 | IL1RN ratio of PBMC absolute gene expression day 15/day 1 (Group A, Virus): 0.77 | IL1RN ratio of PBMC absolute gene expression day 57/day 1 (Group A, Virus): 1.48 | IL2 ratio of PBMC absolute gene expression day 15/day 1 (Group A, Virus): 1.43 | IL2 ratio of PBMC absolute gene expression day 57/day 1 (Group A, Virus): 2.11 | IL4 ratio of PBMC absolute gene expression day 15/day 1 (Group A, Virus): 0.80 | IL4 ratio of PBMC absolute gene expression day 57/day 1 (Group A, Virus): 1.32 | IL5 ratio of PBMC absolute gene expression day 15/day 1 (Group A, Virus): 0.76 | IL5 ratio of PBMC absolute gene expression day 57/day 1 (Group A, Virus): 0.56 | IL8 ratio of PBMC absolute gene expression day 15/day 1 (Group A, Virus): 1.13 | IL8 ratio of PBMC absolute gene expression day 57/day 1 (Group A, Virus): 3.3 | IL10 ratio of PBMC absolute gene expression day 15/day 1 (Group A, Virus): 0.74 | IL10 ratio of PBMC absolute gene expression day 57/day 1 (Group A, Virus): 2.29 | IL12A ratio of PBMC absolute gene expression day 15/day 1 (Group A, Virus): 0.94 | IL12A ratio of PBMC absolute gene expression day 57/day 1 (Group A, Virus): 1.48 | IL12B ratio of PBMC absolute gene expression day 15/day 1 (Group A, Virus): 0.59 | IL12B ratio of PBMC absolute gene expression day 57/day 1 (Group A, Virus): 2.08 | IL13 ratio of PBMC absolute gene expression day 15/day 1 (Group A, Virus): 1.43 | IL13 ratio of PBMC absolute gene expression day 57/day 1 (Group A, Virus): 3.02 | IL15 ratio of PBMC absolute gene expression day 15/day 1 (Group A, Virus): 1.01 | IL15 ratio of PBMC absolute gene expression day 57/day 1 (Group A, Virus): 1.54 | IL16 ratio of PBMC absolute gene expression day 15/day 1 (Group A, Virus): 0.84 | IL16 ratio of PBMC absolute gene expression day 57/day 1 (Group A, Virus): 0.82 | JAK2 ratio of PBMC absolute gene expression day 15/day 1 (Group A, Virus): 0.84 | JAK2 ratio of PBMC absolute gene expression day 57/day 1 (Group A, Virus): 1.26 | LTA ratio of PBMC absolute gene expression day 15/day 1 (Group A, Virus): 1.26 | LTA ratio of PBMC absolute gene expression day 57/day 1 (Group A, Virus): 1.84 | LYZ ratio of PBMC absolute gene expression day 15/day 1 (Group A, Virus): 1.04 | LYZ ratio of PBMC absolute gene expression day 57/day 1 (Group A, Virus): 0.53 | MX1 ratio of PBMC absolute gene expression day 15/day 1 (Group A, Virus): 0.49 | MX1 ratio of PBMC absolute gene expression day 57/day 1 (Group A, Virus): 0.66 | NOD1 ratio of PBMC absolute gene expression day 15/day 1 (Group A, Virus): 0.85 | NOD1 ratio of PBMC absolute gene expression day 57/day 1 (Group A, Virus): 1.14 | SPP1 ratio of PBMC absolute gene expression day 15/day 1 (Group A, Virus): 1.64 | SPP1 ratio of PBMC absolute gene expression day 57/day 1 (Group A, Virus): 15.29 | STAT1 ratio of PBMC absolute gene expression day 15/day 1 (Group A, Virus): 0.80 | STAT1 ratio of PBMC absolute gene expression day 57/day 1 (Group A, Virus): 1.41 | STAT4 ratio of PBMC absolute gene expression day 15/day 1 (Group A, Virus): 1.03 | STAT4 ratio of PBMC absolute gene expression day 57/day 1 (Group A, Virus): 1.69 | TNF ratio of PBMC absolute gene expression day 15/day 1 (Group A, Virus): 0.97 | TNF ratio of PBMC absolute gene expression day 57/day 1 (Group A, Virus): 1.19 | TNFSF10 ratio of PBMC absolute gene expression day 15/day 1 (Group A, Virus): 0.68 | TNFSF10 ratio of PBMC absolute gene expression day 57/day 1 (Group A, Virus): 1.01 | TNFSF13B ratio of PBMC absolute gene expression day 15/day 1 (Group A, Virus): 0.77 | TNFSF13B ratio of PBMC absolute gene expression day 57/day 1 (Group A, Virus): 1.23 | Ratio of absolute IFNG gene expression in group A vs. Groups B + C pooled (HSV-infected cell extracts): 1.896 | Ratio of absolute IFNG gene expression in group A vs. Groups B + C pooled (Neg Control medium): 1.190 | ratio of absolute expression in A57 vs. A1: CCL2 [1]: 1.16 | ratio of absolute expression in A57 vs. A1: CCL3 [1]: 1.79 | ratio of absolute expression in A57 vs. A1: CCL7 [1]: 2.03 | ratio of absolute expression in A57 vs. A1: CCR5 [1]: 1.42 | ratio of absolute expression in A57 vs. A1: CD80 [1]: 1.57 | ratio of absolute expression in A57 vs. A1: CXCL2 [1]: 1.1 | ratio of absolute expression in A57 vs. A1: CXCL5 [1]: 1.45 | ratio of absolute expression in A57 vs. A1: CXCL9 [1]: 14.21 | ratio of absolute expression in A57 vs. A1: CXCL10 [1]: 12.8 | ratio of absolute expression in A57 vs. A1: CXCL11 [1]: 2.53 | ratio of absolute expression in A57 vs. A1: DDX58 [1]: 1.29
